# From US6602499B1, “Combination viral-based and gene-based therapy of tumors” (priority 1998, dated 2003)
# How the values were obtained:
# [1] = system: rRp450- and hrR3-infected 9L cells; experiment: Viral protein synthesis (35S-methionine pulse, autoradiography) in infected 9L cells; assay type: cell-based, rat; conditions: 9L cells grown with 250 uM CPA or 100 ng/ml ganciclovir for 30 hours, then infected with rRp450 or hrR3 at MOI=3
# Experimental: FIG. 4 is an autoradiograph depicting the effect of CPA on rRp450 protein synthesis in infected 9L tumor cells. 9L tumor cells were grown in the presence of CPA (lanes 3 and 6), 100 ng/ml ganciclovir (lanes 2 and 5), or vehicle (lanes 1 and 4). Cells from each group were then infected with rRp450 (lanes 4-6) or hrR3 (lanes 1-3). After pulsing with ^35S-methionine, cell lysates were separated by electrophoresis. The designations, 6,5,8, gB, and pgB indicate the viral ICP6-lacZ fusion, ICP5, ICP8, and glycoprotein B, respectively. The size of molecular weight markers is indicated on the left side of the blot.
# Measurement of Viral Protein Synthesis: 9L tumor cells were grown in the presence of 250 uM CPA, 100 ng/ml ganciclovir, or vehicle for 30 hours. Cells from each group were then infected with rRp450 or hrR3 at an MOI=3. Control plates were infected with a mock viral preparation. Eighteen hours later, medium was removed and fresh medium containing 20 uCi of ^35S-methionine was added. Cells were then scraped and harvested two hours later. Cell pellets were resuspended in sodium phosphate, pH=7.3. in 0.9% sodium chloride in the presence of protease inhibitors and then sheared by passage through a 28 and a ½ gauge needle. Protein concentrations were calculated by using a commercially available kit (BioRad). […]
# Vero cells = assay type: cell-based; conditions: CPA at concentrations up to 200 uM
# 9L cells = experiment: Viral yields from infected 9L cells treated with cyclophosphamide, plaque assay on Vero cells; assay type: cell-based, rat; conditions: 9L cells infected with rRp450 in presence or absence of cyclophosphamide, three days
# Experimental: Three day later, cells and supernatants were harvested and virus was harvested by freeze-thawing three times. Plaque-assays on Vero cells were performed to measure viral yields. Assay was performed in triplicate plates.
# Cell culture studies: Cells were usually plated the day before viral infection. The following day, 3 random dishes were trypsinized and cell numbers were enumerated using a Coulter counter. Based on the mean cell number, the viral mutant was added to achieve the desired multiplicity of infection (MOI). Experiments were performed in triplicate dishes.
# CPA: CPA was added at the start of the incubation period at a concentration of 250 Um.
# human U87 tumors = experiment: Subcutaneous human U87 glioma tumors in athymic mice, intratumoral injection; assay type: in vivo; conditions: rRp450 2.5×10^8 pfus plus vehicle, or 1 mg CPA alone
# Description: FIG. 6B is a graph depicting the in vivo augmentation of rRp450's oncolytic effect by CPA on U87 tumors. Human U87 tumors were inoculated with CPA (closed circles), rRp450 plus vehicle (open circles), or rRp450 plus CPA (dark squares). The black vertical arrows indicate the times of injection (days 1, 2, 4, and 6). Values represent the average tumor volume from 5 mice per group. Error bars represent the standard error of the mean. For this experiment, differences were statistically significant at the 22, 26 and 29 day time point (P<0.05, one way analysis of variance).
# In a similar experiment, visible subcutaneous nodules (the range of volumes was 10-135 mm^3 and the average volume was 74 mm^3) were established by the injection of 10^6 human U87 glioma cells into the subcutaneous flank of athymic mice (NCY/sed, nu/nu; MGH breeding colony). Thirty days later the tumors were treated with intratumoral injections, using a Hamilton syringe, of 1 mg CPA in 125 ul of medium, rRp450 (2.5×10^8 pfus) plus vehicle in 125 ul of medium, or rRp450 (2.5×10^8 pfus) plus 1 mg CPA in 125 ul of medium. Tumor inoculations were repeated on day 2, day 4 and day 6. Five mice were used per treatment group. […]
compound,measurement,setting,value
Nc1nc(O)c2ncn(COC(CO)CO)c2n1 [ganciclovir],Effect of drug on viral protein synthesis,[1],inhibited the synthesis of viral proteins
same,Inhibition of plaque production,Vero cells,did
"O=P1(N(CCCl)CCCl)NCCCO1 (stereo not drawn) [CPA, cyclophosphamide]",Effect of drug on viral protein synthesis,[1],did not appear to significantly inhibit viral protein synthesis
same,Effect of CPA on replication of rRp450,9L cells,did not significantly inhibit replication of rRp450
same,"Growth of U87 tumors, agent alone",human U87 tumors,relatively rapid
same,Inhibition of plaque production,Vero cells,did not inhibit plaque production
